Tests used:
GLP-1R = molecular target: T1, GLP-1R (Homo sapiens, UniProt P43220); assay: EC20 GLP-1(9-36) PAM cAMP assay: dose response of compound in the presence of fixed concentration of GLP-1(9-36); format: cell-based; settings: compound dose response with fixed GLP-1(9-36), GLP-1R CRE-bla CHO-K1 cells; for EC20 GLP-1 (9-36) PAM Activity max cAMP: Emax as total cAMP; for EC50: cAMP
T1 construct: host or cells: CRE-bla CHO-K1
Experimental: EC20GLP-1(9-36) PAM cAMP Assay: Dose Response of Compound in the Presence of Fixed Concentration of GLP-1 (9-36)
GLP-1R CRE-bla CHO-K1 cells were seeded into 384-well white flat bottom plates at 10,000 cells/well/20 μL growth medium (DMEM-High glucose, 10% dialyzed FBS, 0.1 mM NEAA, 25 mM Hepes, 100 U/mL penicillin/100 μg/mL streptomycin, 5 μg/mL Blasticidin, 600 μg/mL Hygromycin) and incubated for 18 h at 37° C. in 5% CO2. Growth medium was replaced with 12 μL assay buffer (Hanks Balanced Salt solution, 10 mM Hepes, 0.1% BSA, pH7.4). A 5× compound dose response curve (12-point) was generated in assay buffer containing 1.5 mM IBMX, 12.5% DMSO. GLP-1(9-36) was diluted to 4.2 μM in assay buffer containing 1.5 mM IBMX and 12.5% DMSO. The 5× compound dose response was added (3 μL), followed by 0.5 μL of GLP-1(9-36) and cells were incubated for 30 min at 37° C. Direct detection of cAMP was carried out using DiscoveRx HitHunter cAMP kit according to manufacturer's instructions and luminescence was read using a SpectraMax M5 plate reader. Luminescence was converted to total cAMP using a cAMP standard curve and data was analyzed by non-linear regression to determine the EC50 and Emax.

[1] = Determination of absolute oral bioavailability in rats; format: in vivo; settings: rat, plasma, fasted female Sprague-Dawley rats, intravenous 1 mg/kg
Experimental: Determination of Absolute Oral Bioavailability in Rats
All pharmacokinetic studies were conducted in fasted female Sprague-Dawely rats (Simonsen Laboratories or Harlan Laboratories). Rats were housed in an ALAAC accredited facility and the research was approved by the facilities Institutional Animal Care and Use Committee (IACUC). The animals were acclimated to the laboratory for at least 48 h prior to initiation of experiments.
Compounds were formulated in 20% hydroxy beta cyclodextrin or 20% captisol and 80%-25 mM NaPO4 Buffer (pH 8) (intravenous infusion), or 5% DMSO/5% Tween20 and 90% water (oral gavage or intraperitoneal injection). The concentration of the dosing solutions was verified by HPLC-UV. For intravenous dosing, compounds were administered into the tail vein to manually restrained animals (n=3 rats/compound). The intravenous dose was 1 mg/kg. Oral dosing was by gavage using a standard stainless steel gavage needle (n=2-4 rats/compound). The oral solution dose was 5 mg/kg. For compounds 1 and 3, the oral solution dose was 30 mg/kg. For both routes of administration, blood was collected into BD Microtainer tubes with Dipotassium EDTA as the anticoagulantant eight time-points after dosing with the final sample drawn 24 h post dose Plasma was separated by centrifugation and transferred to a polypropylene 96-well plate and kept at 4° C. until analysis.
Proteins were precipitated by adding 150 μL acetonitrile to 50 μL of plasma. Plates were mixed for 1 min on a plate shaker to facilitate protein precipitation and then centrifuged at 3,000 rpm for 10 min to pellet protein. The supernatant was transferred to a clean plate and centrifuged at 3,000 rpm for 10 min to pellet any remaining solid material prior to LC/MS/MS analysis. Calibration curve standards were prepared by spiking 54 compound stock in DMSO into rat plasma from untreated animals. An eight point standard curve spanning a range of 0.14 nM to 300 nM was included with each bio-analytical run. The standards were processed identically to the rat pharmacokinetic samples.
Concentrations in the rat pharmacokinetic samples were determined using a standardized HPLC-LC/MS/MS method relative to the eight point standard curve. The system consisted of a Leap CTC Pal injector, Agilent 1200 HPLC with binary pump coupled with an Applied Biosystems 4000 QTrap. Compounds were chromatographed on a Phenomenex Luna C8(2) 20×2 mm 2 um Mercury Cartridge with Security Guard. A gradient method was used with mobile phase A consisting of 0.1% formic acid in water and mobile phase B consisting of 0.1% formic acid in acetonitrile at flow rates varying from 0.7 to 0.8 mL/min. Ions were generated in positive ionization mode using an electrospray ionization (ESI) interface. Multiple reaction monitoring (MRM) methods were developed specific to each compound. The heated nebulizer was set at 500° C. with a nebulizer current of 5.1 μA. Collision energies used to generate daughter ions ranged between 29 and 80 V. Peak area obtained from MRM of the mass transitions specific for each compound were used for quantification. The limit of quantification of the method was typically 1.2 nM. Data were collected and analyzed using Analyst software version 1.5.1. Blood concentration versus time data were analyzed using non-compartmental methods (WinNonlin Phoenix version 6.2; model 200 for oral or intraperitoneal dosing and model 202 for intravenous infusion). Absolute oral bioavailability (%) was calculated using the following expression: (Oral AUC×IV Dose)/(IV AUC×Oral Dose)×100.

[2] = oral solution 30 mg/kg (compounds 1 and 3)

T1 sequence (P43220 24-463): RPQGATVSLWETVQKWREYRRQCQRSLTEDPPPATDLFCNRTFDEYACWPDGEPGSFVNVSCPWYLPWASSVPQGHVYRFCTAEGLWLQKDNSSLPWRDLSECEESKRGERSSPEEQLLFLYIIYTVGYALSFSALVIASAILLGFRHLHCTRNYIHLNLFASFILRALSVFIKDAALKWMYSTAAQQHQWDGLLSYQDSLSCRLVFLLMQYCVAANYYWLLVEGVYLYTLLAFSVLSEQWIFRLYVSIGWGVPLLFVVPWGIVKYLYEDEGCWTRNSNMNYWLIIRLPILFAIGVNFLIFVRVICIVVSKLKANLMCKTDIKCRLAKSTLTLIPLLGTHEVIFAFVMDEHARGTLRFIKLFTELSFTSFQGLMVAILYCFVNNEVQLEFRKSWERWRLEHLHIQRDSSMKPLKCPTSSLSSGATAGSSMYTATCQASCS
T1 sequence (P01275 100-127 partner limits assumed): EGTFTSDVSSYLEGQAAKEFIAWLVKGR

Structure (SMILES) | EC20 GLP-1 (9-36) PAM Activity max cAMP (GLP-1R) [µM] | EC50 (GLP-1R) [µM] | bioavailability [1, 2] [%] | bioavailability ([1]; oral solution 5 mg/kg) [%]
CCCCCCCOc1ccc(C(=O)Oc2ccc(CN(CC(=O)O)C(=O)c3ccc(NC(=O)Cc4ccc(OC)cc4)cc3)cc2)cc1 [Compound 1, 2-(N-(4-((4-(heptyloxy)benzoyl)oxy)benzyl)-4-(2-(4-methoxyphenyl)acetamido)benzamido)-acetic acid] | 0.24 | 3.6 | < 1 | –
COc1ccc(F)c(CC(=O)Nc2ccc(C(=O)N(CC(=O)O)Cc3ccc(-c4noc(-c5ccc(-c6ccc(C)cc6)cc5)n4)cc3)cc2)c1F [Compound 441, 2-(4-(2-(2,6-difluoro-3-methoxyphenyl)acetamido)-N-(4-(5-(4′-methyl-[1,1′-biphenyl]-4-yl)-1,2,4-oxadiazol-3-yl)benzyl)benzamido)acetic acid] | 0.167 | 0.5 | – | 5
COc1ccc(OC)c(CC(=O)Nc2ccc(C(=O)N(CC(=O)O)Cc3ccc(-c4noc(-c5ccc(-c6ccc(C)cc6)cc5)n4)cc3)cc2)c1 [Compound 405, 2-(4-(2-(2,5-dimethoxyphenyl)acetamido)-N-(4-(5-(4′-methyl-[1,1′-biphenyl]-4-yl)-1,2,4-oxadiazol-3-yl)benzyl)benzamido)acetic acid] | 0.206 | 0.3 | – | 8
CCCCCCCOc1ccc(C(=O)Oc2ccc(CN(CC(=O)O)C(=O)c3ccc(NC(=O)Cc4ccc(OC)cc4C(F)(F)F)cc3)cc2)cc1 [Compound 3, 2-(N-(4-((4-(heptyloxy)benzoyl)oxy)benzyl)-4-(2-(4-methoxy-2-(trifluoromethyl)phenyl)-acetamido)benzamido)acetic acid] | 0.284 | 1.3 | < 1 | –

Other lines, results leading:

EC20 GLP-1 (9-36) PAM Activity max cAMP (GLP-1R) [µM] | EC50 (GLP-1R) [µM] | bioavailability [1, 2] [%] | bioavailability ([1]; oral solution 5 mg/kg) [%] | Structure (SMILES)
0.31 | 0.5 | – | 7 | COc1ccc(CC(=O)Nc2ccc(C(=O)N(CC(=O)O)Cc3ccc(-c4noc(-c5ccc(-c6ccc(C)cc6)cc5)n4)cc3)c(F)c2)c(C(F)(F)F)c1 [Compound 496, 2-(2-fluoro-4-(2-(4-methoxy-2-(trifluoromethyl)phenyl)acetamido)-N-(4-(5-(4′-methyl-[1,1′-biphenyl]-4-yl)-1,2,4-oxadiazol-3-yl)benzyl)benzamido)acetic acid]
0.281 | 0.3 | – | 8 | COc1ccc(CC(=O)Nc2ccc(C(=O)N(CC(=O)O)Cc3ccc(-c4nc(-c5ccc(-c6ccc(C)cc6)cc5)no4)cc3)cc2)c(C(F)(F)F)c1 [Compound 362, 2-(4-(2-(4-methoxy-2-(trifluoromethyl)phenyl)acetamido)-N-(4-(3-(4′-methyl-[1,1′-biphenyl]-4-yl)-1,2,4-oxadiazol-5-yl)benzyl)benzamido)acetic acid]
0.266 | 2.9 | – | 2 | COc1ccc(CC(=O)Nc2ccc(C(=O)N(CC(=O)O)Cc3ccc(-c4noc(-c5ccc(C)cc5)n4)cc3)cc2)c(C(F)(F)F)c1 [Compound 355, 2-(4-(2-(4-methoxy-2-(trifluoromethyl)phenyl)acetamido)-N-(4-(5-(p-tolyl)-1,2,4-oxadiazol-3-yl)benzyl)benzamido)acetic acid]
0.29 | 0.5 | – | 2 | COc1ccc(CC(=O)Nc2ccc(C(=O)N(CC(=O)O)Cc3ccc(-c4nc(-c5ccc(-c6ccc(C)cc6)cc5)co4)cc3)cc2)c(C(F)(F)F)c1 [Compound 360, 2-(4-(2-(4-methoxy-2-(trifluoromethyl)phenyl)acetamido)-N-(4-(4-(4′-methyl-[1,1′-biphenyl]-4-yl)oxazol-2-yl)benzyl)benzamido)acetic acid]
